Experiments:
[1] = system: 1,2-dimethylhydrazine (DMH)-induced large intestinal tumors; experiment: DMH-induced large intestinal tumors in rats; format: in vivo, male Sprague-Dawley rats
Excerpt: The effects of daily NAC treatment or intermittent NAC treatments on intestinal tumors, which had been induced by treating male Sprague-Dawley rats with 1,2-dimethylhydrazine (DMH), were investigated.

[2] = system: tyrosine protein kinase (TPK); experiment: AOM-induced rat colon cancer model, TPK activity; format: in vivo; conditions: colonic mucosal and tumor, P<0.01
Method: (§1) Since the efficacy of NAC against colon cancer is significant, the mechanisms of inhibiting colon carcinogenesis were explored by investigating the activities of protein kinase C (PKC), tyrosine protein kinase (TPK), and diacylglycerol kinase (DGK) as well as the 8-isoprostane levels in colonic mucosa and tumor tissues in an azoxy-methane (AOM)-induced rat colon cancer model.
(§2) At seven weeks of age corresponding groups of rats were injected s.c. with azoxymethane (AOM; 15 mg/kg body weight, once weekly for 2 weeks), and different experiments were continued until 38 weeks after the second AOM treatment. Then, the rats were then sacrificed and colonic mucosal as well as tumor samples were evaluated for PKC, TPK, DGK, and 8-isoprostane levels.

8-isoprostane = experiment: AOM-induced rat colon cancer model, 8-isoprostane levels; format: in vivo; conditions: colonic tumors, versus control
Method: as §1, §2

[3] = cited from earlier work
[4] = system: 4NQO-induced rat malignant oral keratinocytes; experiment: 4NQO-induced rat malignant oral keratinocytes transplanted orthotopically to athymic mice; format: in vivo; conditions: for potential to metastasise: differentiated rat malignant oral keratinocytes, versus untreated
Excerpt: The effects of NAC or di-NAC on the metastatic capacity of clonal populations of 4NQO-induced rat malignant oral keratinocytes were examined after orthotopic transplantation to athymic mice. Polygonal cells and spindle cells formed well-differentiated squamous cell carcinomas (keratin positive and vimentin negative) and undifferentiated spindle cell tumors (keratin negative and vimentin positive), respectively, in all animals at the site of inoculation (floor of mouth).

[5] = system: diacylglycerol kinase (DGK); experiment: AOM-induced rat colon cancer model, DGK activity; format: in vivo; conditions: P<0.01
Method: as §1, §2

[6] = system: DHD/K12-PROb colon adenocarcinoma; experiment: Colon adenocarcinoma (DHD/K12-PROb cells s.c.) in BD-IX rats; format: in vivo; conditions: weekly injection
Method: In this experimental model BD-IX rats were divided into four groups: Groups G1 and G2, designated “cancer groups”, were used to study the effects of NAC on the progression of colon cancer, and Groups G3 and G4, designated “toxicity groups”, were used to study the effects of the treatment on metabolic processes and the parenchyma. DHD/K12-PROb cells were injected subcutaneously into the chest of Group G1 and G2 animals. From 1 to 13 weeks after inoculation the animals in Groups G2 and G4 received a weekly injection of NAC. The animals in Groups G1 and G3 received no treatment.

[7] = system: human colon carcinoma cells (CaCo2); experiment: Effects of NAC and di-NAC on human colon carcinoma cells (CaCo2) in culture; format: cell-based; conditions: for local concentration for maximum inhibition of proliferation (no growth) / time to differentiate when treated: CaCo2; for toxic side effects: CaCo2, summary
Method: An established cell line of human colon carcinoma cells was used (CaCo2). CaCo2 is a proliferating human colon carcinoma cell line displaying irregular morphology, forming multiple cell layers with scarce microvillous structures and large intercellular spaces.
The CaCo2 cells were treated with various millimolar concentrations of NAC, ranging from 2 to 10 mM. NAC was added to the culture medium 24 hours after inoculation of the cells. After 3 days of culture in the presence of NAC the cells were analyzed for the following marker parameters: […]

myeloma type tumor cells = conditions: in vitro; cited from earlier work
[8] = system: primary normal human epidermal keratinocytes (NHEK); experiment: Effects of NAC or di-NAC on primary normal human epidermal keratinocytes (NHEK) in culture; format: cell-based; conditions: for cell-cell junctions / concentration of E-cadherins / tubulin expression: 2 mM; for cell-cell junctions / concentration of E-cadherins / tubulin expression / concentration for complete suppression of cell proliferation: 3 days; for concentration for complete suppression of cell proliferation: 1 to 10 mM; for toxic side effects: summary
Excerpt: Primary normal human epidermal keratinocytes (NHEK) obtained from Clonetics Inc. (San Diego, Calif., U.S.A.) were cultivated in the medium provided by the supplier. These cells have a limited life-span of about 15 days in culture and undergo a normal differentiation process of epidermal keratinocytes with a final enucleation and exfoliation. After inoculation the cells acquire a polygonal morphology cell-cell adhesions. The cytoskeleton morphology is quite organized, mainly at the cell borders.
NHEK cells were treated with various millimolar concentrations of NAC or di-NAC, ranging from 1 to 10 mM. The substances were added to the culture medium 24 hours after inoculation. After 3 days of culture in the presence of 2 mM of NAC or di-NAC the cells were analysed for the following marker parameters: […]

protein kinase C (PKC) = experiment: AOM-induced rat colon cancer model, PKC activity; format: in vivo; conditions: colonic mucosa and tumors, P<0.01
Method: as §1, §2

[9] = system: localized psoriatic plaques; experiment: Local treatment of psoriatic plaques in volunteers with NAC or di-NAC cream; format: in vivo, human; conditions: base-cream 10-20 weight %; for outcome of prolonged treatment: weeks to a few months; for most commonly reported side effect: with occlusive bandage
Excerpt: Five informed volunteers displaying localized psoriatic plaques were locally treated with a base-cream containing 10-20 weight % of NAC or di-NAC. The cream had been applied every night for variable periods—from weeks to a few months—with or without occlusive bandage. The skin of the patient was normally washed between each daily treatment. No other drugs were contemporarily used.

arteriosclerosis = conditions: WHHL rabbits; cited from earlier work
[10] = system: human colon carcinoma cells (CaCo2); experiment: Effects of NAC and di-NAC on human colon carcinoma cells (CaCo2) in culture; format: cell-based; conditions: CaCo2, di-NAC treatment

CC(=O)N[C@@H](CS)C(=O)O [NAC, N-acetyl-L-cysteine]
large intestinal tumor mass index ([1]; NAC-treated group, p<0.001 vs control): 0.04 | adenocarcinomas in the colons ([1]; daily NAC treatment): no adenocarcinomas were present | large intestinal tumor burden ([1]; intermittent NAC treatment, p=0.001 vs control): 1 tumors/treatment group | TPK activities [2]: significantly suppressed | 8-isoprostane levels (8-isoprostane): lower levels | side effects when used clinically ([3]; even after high doses, such as 10 g/day): no significant side effects | clearance ([3]; in vivo): relatively rapid | side effects after intravenous injection ([3]; paracetamol poisoning, 10 grams i.v. in 15 minutes, then half of the dose in 30 min): without any reported side effects | potential to metastasise [4]: decreased potential to metastasise | inhibition of clones of polygonal cells ([4]; exogenous NAC): markedly inhibited | inhibition of spindle cells ([4]; exogenous NAC): inhibited | DGK activity [5]: significant increased | tumor growth ([6]; female and male rats): significantly slower | life span ([6]; 1 to 13 weeks after inoculation): extended life span | local concentration for maximum inhibition of proliferation (no growth) [7]: about 1 mM | time to differentiate when treated [7]: 3 days | apoptosis / necrosis ([7]; CaCo2, 2 to 10 mM, 3 days): Neither apoptosis nor necrosis was observed | concentration of maximum effect on decrease of cell proliferation ([7]; CaCo2, 2 to 10 mM, 3 days of culture): 2 mM | cell-cell adhesion structures ([7]; CaCo2, 3 days of culture): increased number | tubulin expression ([7]; CaCo2, 3 days of culture): strongly reduced | cell viability ([7]; CaCo2, all doses added (2 to 10 mM), 3 days): unaffected | toxic side effects [7]: without any detectable toxic side effects | concentration at which reversion of colon cancer cells is induced [7]: 1 mM | concentration at which colon carcinoma completely differentiate [7]: 5 mM | activity against myeloma type tumor cells (myeloma type tumor cells): tumor proliferation inhibitory activity | local concentration for maximum inhibition of proliferation (no growth) ([8]; NHEK): about 1 mM | time to differentiate when treated ([8]; NHEK): 3 days | cell-cell junctions ([8]; NHEK): increased number | concentration of E-cadherins ([8]; NHEK): increased | tubulin expression ([8]; NHEK): reduced | concentration for complete suppression of cell proliferation ([8]; NHEK): 2 mM | cell viability ([8]; NHEK, all doses, up to 10 mM): unaffected | toxic side effects ([8]; NHEK): no toxic side effects | apoptosis / necrosis ([8]; NHEK, up to 10 mM): Neither apoptosis nor necrosis was observed | concentration at which keratinocytes completely differentiate [8]: 1 mM | minimum dose required to accelerate differentiation of normal keratinocytes [8]: 0.5 mM | Ca2+ dependent and independent PKC activities (protein kinase C (PKC)): significantly inhibited | outcome of prolonged treatment [9]: complete remission of all symptoms | most commonly reported side effect [9]: local hitching

CC(=O)N[C@@H](CSSC[C@H](NC(C)=O)C(=O)O)C(=O)O [di-NAC, N,N′-diacetyl-L-cystine]
effect on arteriosclerosis (arteriosclerosis): inhibits arteriosclerosis | potential to metastasise [4]: decreased potential to metastasise | E-cadherin expression [10]: increased | proliferation [10]: decreased proliferation | local concentration for maximum inhibition of proliferation (no growth) [7]: about 1 mM | time to differentiate when treated [7]: 3 days | toxic side effects [7]: without any detectable toxic side effects | concentration at which reversion of colon cancer cells is induced [7]: 1 mM | concentration at which colon carcinoma completely differentiate [7]: 5 mM | local concentration for maximum inhibition of proliferation (no growth) ([8]; NHEK): about 1 mM | time to differentiate when treated ([8]; NHEK): 3 days | cell-cell junctions ([8]; NHEK): increased number | concentration of E-cadherins ([8]; NHEK): increased | tubulin expression ([8]; NHEK): reduced | concentration for complete suppression of cell proliferation ([8]; NHEK): 2 mM | toxic side effects ([8]; NHEK): no toxic side effects | concentration at which keratinocytes completely differentiate [8]: 1 mM | minimum dose required to accelerate differentiation of normal keratinocytes [8]: 0.5 mM | outcome of prolonged treatment [9]: complete remission of all symptoms | most commonly reported side effect [9]: local hitching

From patent publication US20040097521A1, “Clinical treatment” (priority 2000, published 2004)
